Source: paper PMC8154581, “Discovery of Novel Thiophene-arylamide Derivatives as DprE1 Inhibitors with Potent Antimycobacterial Activities” (Journal of Medicinal Chemistry, 2021)
Converted amounts (≈) assume the structure as drawn.

Tests used:
Assay in all cases: microbe, parasite or virus in culture
Type in all cases: cell-based
[1] = system: M. tuberculosis clinical isolate 13946; details: Mycobacterium tuberculosis, read-out: MIC 13946
[2] = system: M. tuberculosis clinical isolate 14862; details: Mycobacterium tuberculosis, read-out: MIC 14862
[3] = system: PBTZ169-resistant strain of M. tuberculosis; details: Mycobacterium tuberculosis, read-out: MIC PBTZ169-resistant strain
[4] = system: bedaquiline-resistant strain of M. tuberculosis; details: Mycobacterium tuberculosis, read-out: MIC bedaquiline-resistant strain

Row | SMILES | MIC [1] | MIC [2] | MIC [3] | MIC [4]
1 | CCOC(=O)NC(=O)c1ccsc1NC(=O)c1ccc(C(=O)N2CCCCC2)cc1 [Compound 23j, Ethyl (2-(4-(Piperidine-1-carbonyl)benzamido)thiophene-3-carbonyl)carbamate] | 0.082 µg/mL (≈ 0.191 µM) | 0.059 µg/mL (≈ 0.137 µM) |  | 
2 | CCOC(=O)NC(=O)c1ccsc1NC(=O)c1ccc(C(=O)N2CCCCC2)c(F)c1 [Compound 24f, Ethyl (2-(3-Fluoro-4-(piperidine-1-carbonyl)benzamido)thiophene-3-carbonyl)carbamate] | 0.031 µg/mL (≈ 0.0693 µM) | 0.031 µg/mL (≈ 0.0693 µM) |  | 
3 | CCOC(=O)NC(=O)c1ccsc1NC(=O)c1ccc(C(=O)N2CCCCC2)s1 [Compound 24j, Ethyl (2-(5-(Piperidine-1-carbonyl)thiophene-2-carboxamido)thiophene-3-carbonyl)carbamate] | 0.12 µg/mL (≈ 0.276 µM) | 0.12 µg/mL (≈ 0.276 µM) |  | 
4 | CCOC(=O)NC(=O)c1ccsc1NC(=O)c1coc(C(=O)N2CCCCC2)c1 [Compound 24k, Ethyl (2-(5-(Piperidine-1-carbonyl)furan-3-carboxamido)thiophene-3-carbonyl)carbamate] | 0.44 µg/mL (≈ 1.05 µM) | 0.23 µg/mL (≈ 0.548 µM) |  | 
5 | COC(=O)NC(=O)c1ccsc1NC(=O)c1ccc(C(=O)N2CCCCC2)cc1 [Compound 25a, Methyl (2-(4-(Piperidine-1-carbonyl)benzamido)thiophene-3-carbonyl)carbamate] | 0.24 µg/mL (≈ 0.578 µM) | 0.24 µg/mL (≈ 0.578 µM) |  | 
6 | COC(=O)NC(=O)c1ccsc1NC(=O)c1ccc(C(=O)N2CCCCC2)c(F)c1 [Compound 25b, Methyl (2-(3-Fluoro-4-(piperidine-1-carbonyl)benzamido)thiophene-3-carbonyl)carbamate] | 0.062 µg/mL (≈ 0.143 µM) | 0.12 µg/mL (≈ 0.277 µM) |  | 
7 | O=C(Nc1sccc1C(=O)Nc1nccc(C(F)(F)F)n1)c1ccc(C(=O)N2CCCCC2)cc1 [Compound 25l, 2-(4-(Piperidine-1-carbonyl)benzamido)-N-(4-(trifluoromethyl)pyrimidin-2-yl)thiophene-3-carboxamide] | 0.94 µg/mL (≈ 1.87 µM) | 0.48 µg/mL (≈ 0.953 µM) |  | 
8 | NNC(=O)c1ccncc1 [INH, isoniazid, reference compound] | 2.46 µg/mL (≈ 17.9 µM) | > 10 µg/mL |  | 
9 | O=c1nc(N2CCN(CC3CCCCC3)CC2)sc2c([N+](=O)[O-])cc(C(F)(F)F)cc12 [PBTZ169] |  |  | 5 ng/mL (≈ 0.011 µM) | 
10 | CCOC(=O)NC(=O)c1ccsc1NC(=O)c1nc2ccccc2s1 [TCA1, reference compound] | 0.95 µg/mL (≈ 2.53 µM) | 0.48 µg/mL (≈ 1.28 µM) |  | 
11 | COc1nc2ccc(Br)cc2cc1[C@@H](c1ccccc1)[C@@](O)(CCN(C)C)c1cccc2ccccc12 [bedaquiline, reference compound] |  |  |  | 2.24 µg/mL (≈ 4.03 µM)
